Holding throughout (details): pH 7.5
Assay [1] deals with T1, Serine/threonine-protein kinase haspin [470-798] (Homo sapiens, UniProt Q8TF76).
T1 construct: 470-798
T1 sequence (Q8TF76 whole entry): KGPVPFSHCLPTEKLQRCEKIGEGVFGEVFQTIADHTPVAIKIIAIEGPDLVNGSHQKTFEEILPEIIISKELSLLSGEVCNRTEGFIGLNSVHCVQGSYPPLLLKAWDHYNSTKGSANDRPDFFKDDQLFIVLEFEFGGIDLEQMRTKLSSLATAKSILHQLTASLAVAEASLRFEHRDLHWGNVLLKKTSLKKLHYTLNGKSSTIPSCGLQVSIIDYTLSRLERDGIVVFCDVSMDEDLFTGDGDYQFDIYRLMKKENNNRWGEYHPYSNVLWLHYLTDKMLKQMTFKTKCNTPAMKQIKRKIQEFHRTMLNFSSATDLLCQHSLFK
Kind of assay: Equilibrium Binding/Displacement Assay with Fluorescence Anisotropy. As to the method:
(§1) All measurements were performed in HEPES (50 mm, pH 7.5) containing NaCl (150 mm), Tween-20 (0.005%) and DTT (5 mm) according to a previously published protocol.[Vaasa et al., Anal. Biochem., 385:85-93] The final volume of the assay mixture was […].
Background: Polarisation of emitted light reports the rotation of a fluorescent probe.

The target in assay [2] is cAMP-dependent protein kinase catalytic subunit alpha (Homo sapiens, UniProt P17612). The assay is described as above. As to the method:
as §1

Assay [3] deals with T1, Serine/threonine-protein kinase haspin [470-798]. Kind of assay: Kinetic Assay with Fluorescence Anisotropy. As to the method: Association kinetics (Kon): All measurements were performed in HEPES (50 mM, pH 7.5) containing NaCl (150 mM), Tween-20 (0.005%) and DTT (5 mM) according to a previously published protocol.[Vaasa et al., Anal. Biochem., 385:85-93] The final volume of the assay mixture was […] The association kinetics assay with fluorescent probes and data analysis were performed according to published protocols.[Vaasa et al., Anal. Biochem., 385:85-93] The final volume of the assay mixture was […]. Dissociation kinetics (Koff): All measurements were performed in HEPES (50 mM, pH 7.5) containing NaCl (150 mM), Tween-20 0.005%) and DTT (5 mM). Data analysis was as reported previously,[Vaasa et al., Anal. Biochem., 385:85-93] by using method1 for compounds with shorter residence times, and method 2 for 1 in studies with haspin. The final volume of the assay mixture was […]. Kd' is calculated as Koff/Kon.

Values joined by “and” are separate entries in the source; they are usually repeats but may differ in a detail not shown here. Identical values can stand only once.

With `CCCCCCCCCCCCCC(=O)NCCCC[C@@H](NC(=O)[C@H](C)NC(=O)[C@@H](NC(=O)[C@H](CCC(N)=O)NC(=O)[C@H](CCCNC(=N)N)NC(=O)[C@H](CCCCNC(=O)C[C@@H](NC(=O)CCCCCNC(=O)[C@H]1O[C@@H](n2ccc3c(N)ncnc32)[C@H](O)[C@@H]1O)C(=O)[O-])NC(=O)[C@H](CCCNC(=N)N)NC(=O)[C@H](C)N)C(C)O)C(=O)N[C@H](CCCCNC(=O)c1ccc(-c2c3ccc(=[N+](C)C)cc-3oc3cc(N(C)C)ccc23)c(C(=O)O)c1)C(N)=O` (stereo partly specified) [ARC-3380], the Kd in assay [1] turned out to be 8.4 nM; in assay [2], 9.6 nM; in assay [3], 14.9 nM.

As for `CC(O)[C@H](NC(=O)[C@H](CCC(N)=O)NC(=O)[C@H](CCCNC(=N)N)NC(=O)[C@H](CCCCNC(=O)C[C@@H](NC(=O)CCCCCNC(=O)[C@H]1O[C@@H](n2ccc3c(N)ncnc32)[C@H](O)[C@@H]1O)C(=O)[O-])NC(=O)[C@H](CCCNC(=N)N)NC(=O)[C@H](C)N)C(=O)N[C@@H](C)C(=O)N[C@H](CCCCNC(=O)c1ccc(-c2c3ccc(=[N+](C)C)cc-3oc3cc(N(C)C)ccc23)c(C(=O)O)c1)C(N)=O` (stereo partly specified) [ARC-3384], the equilibrium dissociation constant (Kd) in assay [1] came out at 11 nM; in assay [2] it was 52 nM; in assay [3], 2.84 nM.

Turning to `CC(O)[C@H](NC(=O)[C@H](CCC(N)=O)NC(=O)[C@H](CCCNC(=N)N)NC(=O)[C@H](CCCCNC(=O)C[C@@H](NC(=O)CCCCCNC(=O)[C@H]1O[C@@H](n2cc(I)c3c(N)ncnc32)[C@H](O)[C@@H]1O)C(=O)O)NC(=O)[C@H](CCCNC(=N)N)NC(=O)[C@H](C)N)C(=O)N[C@@H](C)C(=O)N[C@H](CCCCN)C(N)=O` (stereo partly specified) [ARC-3429], the dissociation constant (Kd) was 0.14 nM and 0.019 nM in assay [1]; 94 nM in assay [2].

As to `CC(O)[C@H](NC(=O)[C@H](CCC(N)=O)NC(=O)[C@H](CCCNC(=N)N)NC(=O)[C@H](CCCCNC(=O)C[C@@H](NC(=O)CCCCCNC(=O)[C@H]1O[C@@H](n2cc(I)c3c(N)ncnc32)[C@H](O)[C@@H]1O)C(=O)[O-])NC(=O)[C@H](CCCNC(=N)N)NC(=O)[C@H](C)N)C(=O)N[C@@H](C)C(=O)N[C@H](CCCCNC(=O)c1ccc(-c2c3ccc(=[N+](C)C)cc-3oc3cc(N(C)C)ccc23)c(C(=O)O)c1)C(N)=O` (stereo partly specified) [ARC-3430], the Kd in assay [1] was 0.5 nM and 0.12 nM; in assay [2], 4.1 nM; in assay [3] it was 0.1 nM.

What is called Kd is the concentration at which binding is half-saturated. High values mean a looser complex, low ones a tighter complex.
